Laboratory results from paper PMC3720801, “A Proline-Hinge Alters the Characteristics of the Amphipathic α-helical AMPs” (PLoS ONE, 2013).
In brackets after ≈: the same amount, converted by molar mass. Peptide text beside a SMILES is read from it.

Assays:
[1] = system: Trichosporon beigelii (KCTC 7707); test: Antifungal MTT assay MIC; type: cell-based; details: YPD pH 5.5, 24 h at 28°C, absorbance 570 nm, triplicate
[2] = system: Bacillus subtilis (KCTC 1918); details: broth microdilution, 1% bactopeptone, 5×10^3 CFU/ml, 10 h at 37°C, OD 620 nm, triplicate
[3] = system: Staphylococcus epidermidis (KCTC 1917); details: broth microdilution, 1% bactopeptone, 5×10^3 CFU/ml, 10 h at 37°C, OD 620 nm, triplicate
S. aureus (KCTC 1621) = details: broth microdilution, 1% bactopeptone, 5×10^3 CFU/ml, 10 h at 37°C, OD 620 nm, triplicate
[4] = system: Escherichia coli (KCTC 1682); details: broth microdilution, 1% bactopeptone, 5×10^3 CFU/ml, 10 h at 37°C, OD 620 nm, triplicate
[5] = system: Proteus vulgaris (KCTC 2433); details: broth microdilution, 1% bactopeptone, 5×10^3 CFU/ml, 10 h at 37°C, OD 620 nm, triplicate
[6] = system: Salmonella typhimurium (KCTC 1926); details: broth microdilution, 1% bactopeptone, 5×10^3 CFU/ml, 10 h at 37°C, OD 620 nm, triplicate
[7] = system: Pseudomonas aeruginosa (KCTC 1637); details: broth microdilution, 1% bactopeptone, 5×10^3 CFU/ml, 10 h at 37°C, OD 620 nm, triplicate
[8] = system: Candida albicans (KCTC 7270); details: MTT assay, YPD pH 5.5, 24 h at 28°C, absorbance 570 nm, triplicate
[9] = system: Saccharomyces cerevisiae (KCTC 7296); details: MTT assay, YPD pH 5.5, 24 h at 28°C, absorbance 570 nm, triplicate

Compound | MIC Yeast TB [1] [µM] | MIC G(+) BS [2] [µM] | MIC G(+) SE [3] [µM] | MIC G(+) SA (S. aureus (KCTC 1621)) [µM] | MIC G(−) EC [4] [µM] | MIC G(−) PV [5] [µM] | MIC G(−) ST [6] [µM] | MIC G(−) PA [7] [µM] | MIC Yeast CA [8] [µM] | MIC Yeast SC [9] [µM]
CC[C@H](C)[C@H](NC(=O)[C@H](CCCCN)NC(=O)[C@H](CO)NC(=O)[C@H](Cc1ccccc1)NC(=O)[C@H](CC(C)C)NC(=O)[C@H](CCCCN)NC(=O)[C@H](CCC(=O)O)NC(=O)[C@H](CC(C)C)NC(=O)[C@H](CCCNC(=N)N)NC(=O)[C@H](CCCCN)NC(=O)[C@H](Cc1ccccc1)NC(=O)[C@@H](NC(=O)[C@H](CCCCN)NC(=O)[C@H](CCCCN)NC(=O)[C@H](C)N)C(C)C)C(=O)N[C@@H](CCC(N)=O)C(=O)N[C@@H](CC(N)=O)C(=O)N[C@@H](Cc1c[nH]c2ccccc12)C(=O)N[C@@H](CCCCN)C(N)=O [Anal 1] (H-AKKVFKRLEKLFSKIQNWK-NH2) | 6.25 (≈ 14.9 µg/mL) | 1.56 (≈ 3.73 µg/mL) | 0.78 (≈ 1.86 µg/mL) | 3.13 (≈ 7.48 µg/mL) | 1.56 (≈ 3.73 µg/mL) | 1.56 (≈ 3.73 µg/mL) | 0.39 (≈ 0.932 µg/mL) | 6.25 (≈ 14.9 µg/mL) | 12.5 (≈ 29.9 µg/mL) | 12.5 (≈ 29.9 µg/mL)
CC[C@H](C)[C@H](NC(=O)[C@H](CCCCN)NC(=O)[C@H](CO)NC(=O)[C@H](Cc1ccccc1)NC(=O)[C@H](CC(C)C)NC(=O)[C@H](CCCCN)NC(=O)[C@H](CCC(=O)O)NC(=O)[C@H](CC(C)C)NC(=O)[C@H](CCCNC(=N)N)NC(=O)[C@H](CCCCN)NC(=O)[C@H](Cc1ccccc1)NC(=O)[C@@H](NC(=O)[C@H](CCCCN)NC(=O)[C@H](CCCCN)NC(=O)[C@H](C)N)C(C)C)C(=O)N[C@@H](Cc1c[nH]c2ccccc12)C(=O)N[C@@H](CC(N)=O)C(=O)N[C@@H](CC(=O)O)C(=O)N[C@@H](CCCCN)C(N)=O [Anal 2] (H-AKKVFKRLEKLFSKIWNDK-NH2) | 6.25 to 12.5 | 1.56 (≈ 3.71 µg/mL) | 1.56 (≈ 3.71 µg/mL) | 3.13 (≈ 7.44 µg/mL) | 1.56 (≈ 3.71 µg/mL) | 1.56 (≈ 3.71 µg/mL) | 0.78 (≈ 1.85 µg/mL) | 6.25 (≈ 14.9 µg/mL) | 12.5 (≈ 29.7 µg/mL) | 12.5 (≈ 29.7 µg/mL)
CC[C@H](C)[C@H](NC(=O)[C@H](CCCCN)NC(=O)[C@H](CO)NC(=O)[C@H](Cc1ccccc1)NC(=O)[C@H](CC(C)C)NC(=O)[C@H](CCCCN)NC(=O)[C@H](CCC(=O)O)NC(=O)[C@H](CC(C)C)NC(=O)[C@H](CCCNC(=N)N)NC(=O)[C@H](CCCCN)NC(=O)[C@H](Cc1ccccc1)NC(=O)[C@@H](NC(=O)[C@H](CCCCN)NC(=O)[C@H](CCCCN)NC(=O)[C@H](C)N)C(C)C)C(=O)N[C@@H](Cc1c[nH]c2ccccc12)C(=O)N[C@@H](CC(N)=O)C(=O)N[C@@H](Cc1c[nH]c2ccccc12)C(=O)N[C@@H](CCCCN)C(N)=O [Anal 3] (H-AKKVFKRLEKLFSKIWNWK-NH2) | 3.13 (≈ 7.67 µg/mL) | 0.78 (≈ 1.91 µg/mL) | 0.78 (≈ 1.91 µg/mL) | 1.56 (≈ 3.82 µg/mL) | 0.78 (≈ 1.91 µg/mL) | 1.56 (≈ 3.82 µg/mL) | 0.39 (≈ 0.955 µg/mL) | 3.13 (≈ 7.67 µg/mL) | 6.25 (≈ 15.3 µg/mL) | 3.13 to 6.25
CC[C@H](C)[C@H](NC(=O)[C@H](CCCCN)NC(=O)[C@H](CO)NC(=O)[C@H](Cc1ccccc1)NC(=O)[C@H](CO)NC(=O)[C@H](CCCCN)NC(=O)[C@H](CCC(=O)O)NC(=O)[C@H](CC(C)C)NC(=O)[C@H](CCCNC(=N)N)NC(=O)[C@H](CCCCN)NC(=O)[C@H](Cc1ccccc1)NC(=O)[C@@H](NC(=O)[C@H](CCCCN)NC(=O)[C@H](CCCCN)NC(=O)[C@H](C)N)C(C)C)C(=O)N[C@@H](CCC(N)=O)C(=O)N[C@@H](CC(N)=O)C(=O)N[C@@H](CC(=O)O)C(=O)N[C@@H](CCCCN)C(N)=O [Anal 4] (H-AKKVFKRLEKSFSKIQNDK-NH2) | 50 (≈ 115 µg/mL) | 6.25 (≈ 14.3 µg/mL) | 12.5 (≈ 28.7 µg/mL) | >12.5 | 12.5 (≈ 28.7 µg/mL) | 6.25 (≈ 14.3 µg/mL) | 1.56 (≈ 3.58 µg/mL) | >12.5 | 50 to 100 | 50 (≈ 115 µg/mL)
